Test results: PubChem BioAssay (NCI)
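Following 48 hours of exposure in 96-well plates, responses at five concentrations were used to interpolate endpoints linearly. GI50 = concentration required for 50% inhibition of growth. Definition used: TGI = concentration required for complete inhibition of growth.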

Key:
Assay in all cases: inhibition of tumour cell growth, NCI panel, 48 h
[1] = tested on: BT-549 breast
[2] = tested on: CAKI-1 renal
[3] = tested on: DU-145 prostate
[4] = tested on: LOX IMVI melanoma
[5] = tested on: M14 melanoma
[6] = tested on: MDA-MB-231 breast
[7] = tested on: NCI-H522 lung
[8] = tested on: OVCAR-8 ovarian
[9] = tested on: SK-MEL-2 melanoma
[10] = tested on: SK-MEL-28 melanoma

| Compound | GI50 [1] | TGI [1] | GI50 [2] | TGI [2] | GI50 [3] | TGI [3] | GI50 [4] | TGI [4] | GI50 [5] | TGI [5] | GI50 [6] | TGI [6] | GI50 [7] | TGI [7] | GI50 [8] | TGI [8] | GI50 [9] | TGI [9] | GI50 [10] | TGI [10] |
| --- | --- | --- | --- | --- | --- | --- | --- | --- | --- | --- | --- | --- | --- | --- | --- | --- | --- | --- | --- | --- |
| COc1c(CCC[P+](c2ccccc2)(c2ccccc2)c2ccccc2)cc2c(c1OC)OCO2 | 1240 nM | 15 µM | 2450 nM | 7.35 µM | 3.56 µM | > 100 µM | 2400 nM | 10.4 µM | 2220 nM | 19.2 µM | 2140 nM | 10.9 µM | 1750 nM | 10.8 µM | 2.66 µM | > 100 µM | 3.03 µM | 14.1 µM | 0.769 µM | 14.8 µM |
| C[C@H](Nc1ncnc2nc[nH]c12)c1cc2cccc(Cl)c2c(=O)n1-c1ccccc1 | 1570 nM | > 83.1 µM | 13500 nM | > 100 µM | 26.2 µM | > 100 µM | 19800 nM | > 100 µM | 21100 nM | > 100 µM | 46400 nM | > 100 µM | 6930 nM | > 100 µM | 27 µM | > 100 µM | 19.2 µM | 72.6 µM | 11.8 µM | > 100 µM |
| ClCCn1c(CCl)nc2ccc(Cl)cc21 | 277 nM | 0.753 µM | 1600 nM | 3.2 µM | 1.75 µM | 3.22 µM | 156 nM | 0.317 µM | 466 nM | 1.64 µM | 1520 nM | 3.38 µM | 185 nM | 0.363 µM | 0.338 µM | 1.6 µM | 1.65 µM | 3.6 µM | 1.68 µM | 3.49 µM |
| COC(=O)[C@]12CC[C@@H](C)[C@H](C)[C@@H]1C1=CC[C@@H]3[C@@]4(C)C[C@@H](OC(C)=O)[C@H](O)[C@@](C)(COC(C)=O)[C@@H]4[C@H](O)C[C@@]3(C)[C@]1(C)CC2 | 2180 nM | 5.71 µM | 2820 nM | 10.9 µM | 3.48 µM | 11.9 µM | 1640 nM | 3.1 µM | 1960 nM | 5.09 µM | 1870 nM | 4.81 µM | 1940 nM | 4.33 µM | 2.36 µM | 5.91 µM | 2.84 µM | 7.39 µM | 2.42 µM | 6.7 µM |
| COc1cccc(/C=C/C(=O)c2cccc(Nc3nc(Nc4ccccc4)nc(Nc4ccccc4)n3)c2)c1 | 21700 nM | > 72.1 µM | > 22400 nM | > 60.8 µM | 19.9 µM | > 100 µM | 7040 nM | 21.3 µM | 19300 nM | > 72.2 µM | 32700 nM | > 100 µM | 15100 nM | > 100 µM | 9.91 µM | > 100 µM | > 33.4 µM | > 100 µM | 20.8 µM | 56.2 µM |
| COC1(C(=O)N[C@@H](C)c2ccc(-n3cc(F)cn3)nc2)CCC(c2nc(C)cc(Nc3cc(C)[nH]n3)n2)CC1 (stereo not given in full) | 627 nM | 6.01 µM | 889 nM | 2.23 µM | 1.8 µM | 4.63 µM | 714 nM | 2.54 µM | 3030 nM | 17.7 µM | 1140 nM | 4.69 µM | 2260 nM | 16.7 µM | 3.74 µM | 25.5 µM | 6.82 µM | 23.2 µM | 10.2 µM | 22.5 µM |
